The values below come from patent US20040116420A1 (priority 2001, published 2004).

In one data set the test system is Vero cells. Put plainly: Cytotoxicity, Vero cells, Alamar Blue. The following applies: 25 μM, 20 hours. The data set is classed as cell-based. As to the method:
An Assay Method for Cytotoxicity
The Vero cells were sown on a 96-well plate and then cultured overnight. The culture supernatant was removed, and 200 μl of 2% FBS-DMEM comprising 25 μM of the test compound was added. In this case, a substance to which 2% FBS-DMEM not comprising any test compound had been added was determined as a control. These cells were incubated in the presence of 5% CO2 at 37° C. for 20 hours. Alamar Blue (20 μl) was added to the cells, and cells were incubated for about 6 hours until the color of the control changed. The ratio of the absorbance was assayed using a microplate reader for absorption, and the value relative to the control was determined to be the ratio of living cells.

The next data set deals with HSV-1. Description: Antiviral activity, HSV-1 in Vero cells, plaque method. It counts as cell-based. The following applies: Human alphaherpesvirus 1, 20 hours, 90% inhibition of plaque formation. An outline of the steps:
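This is a virus-yield read-out. The culture medium was frozen at −80° C and thawed, and the plaques it formed were counted. It came from Vero monolayers infected with 50,000 pfu HSV-1 and then exposed to the compound for 20 h at 37° C. EC90 is the concentration inhibiting 90% of plaque formation relative to the untreated infected control.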

Another data set concerns the target T1, HSV-1 protease (Human herpesvirus 1, UniProt P10210).
T1 construct: 6xHis (N); made in house; host or cells: baculovirus expression system
Put plainly: Enzymatic assay for HSV-1 protease (assembly) inhibitor, fluorescence polarization. The data set is classed as biochemical. The following applies: read-out: HSV-1 Enzyme inhibition IC50. An outline of the steps:
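Fluorescence polarization read-out: after avidin stop, cleavage of a biotinylated DTAF-labelled release-site peptide by recombinant N-His6 HSV-1 protease was compared with no-inhibitor wells. Enzyme and compound were preincubated 30 min, then substrate reacted 60 min, all at room temperature, pH 7.4 citrate buffer with TCEP.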

T1 sequence (P10210 1-247): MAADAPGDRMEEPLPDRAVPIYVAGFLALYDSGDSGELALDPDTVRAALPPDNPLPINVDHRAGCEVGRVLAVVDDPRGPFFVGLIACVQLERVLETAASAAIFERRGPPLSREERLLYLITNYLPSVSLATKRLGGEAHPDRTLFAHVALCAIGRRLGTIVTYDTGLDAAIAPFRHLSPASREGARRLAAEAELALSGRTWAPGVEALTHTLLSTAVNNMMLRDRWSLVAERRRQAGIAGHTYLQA

For the compound `Cc1c(NC(=O)OC(C)(C)C)ccc2nc(N[C@@H](C)C(=O)N(C)CCc3ccncc3)oc(=O)c12` [Compound No.50, (5-Methyl-2-{1S-[methyl-(2-pyridin-4-yl-ethyl)-carbamoyl]-ethylamino}-4-oxo-4H-benzo[d][1,3]oxazin-6-yl)-carbamic acid tert-butyl ester], in the data set on Vero cells, the “Cell viability (% of control)” value is 106.0%. In the data set with HSV-1, this compound showed an EC90 of under 3.2 µM. Moreover, the IC50 at HSV-1 protease was 0.9 µM.

Turning to `Cc1c(NC(=O)CCl)ccc2nc(NC(C)(C)C(=O)N(C)CCc3ccccn3)oc(=O)c12` [Compound No.189, 2-[6-(2-Chloro-acetylamino)-5-methyl-4-oxo-4H-benzo[d][1,3]oxazin-2-ylamino]-2,N-dimethyl-N-(2-pyridin-2-yl-ethyl)-propionamide], in the data set with Vero cells, the “Cell viability (% of control)” value is given as 41.0%. The same compound had an EC90 with HSV-1 of over 12.5 µM. On HSV-1 protease, the IC50 came out at 2 µM.

As for `Cc1c(NC(=O)C(C)(C)C)ccc2nc(NC(C)(C)C(=O)N(C)CCc3ccccn3)oc(=O)c12` [Compound No.136, 2,2-Dimethyl-N-(5-methyl-2-{1-methyl-1-[methyl-(2-pyridin-2-yl-ethyl)-carbamoyl]-ethylamino}-4-oxo-4H-benzo[d][1,3]oxazin-6-yl)-propionamide], in the data set with Vero cells, the “Cell viability (% of control)” value came to 81.8%. Moreover, the EC90 in the data set with HSV-1 was over 12.5 µM. Also, the IC50 at HSV-1 protease came to 4.5 µM.

For `Cc1c(NC(=O)c2ccccc2C(F)(F)F)ccc2nc(NC(C)(C)C(=O)N(C)CCc3ccccn3)oc(=O)c12` [Compound No.144, N-(5-Methyl-2-{1-methyl-1-[methyl-(2-pyridin-2-yl-ethyl)-carbamoyl]-ethylamino}-4-oxo-4H-benzo[d][1,3]oxazin-6-yl)-2-trifluoromethyl-benzamide], the “Cell viability (% of control)” value with Vero cells stood at 76.1%. The EC90 with HSV-1 is over 12.5 µM. Besides, the IC50 at HSV-1 protease turned out to be 2.3 µM.

In the case of `Cc1c(NC(=O)OC(C)(C)C)ccc2nc(N3Cc4ccccc4C[C@H]3C(=O)NCc3ccccn3)oc(=O)c12` [Compound No.94, (5-Methyl-4-oxo-2-{3S-[(pyridin-2-ylmethyl)-carbamoyl]-3,4-dihydro-1H-isoquinolin-2-yl}-4H-benzo[d][1,3]oxazin-6-yl)-carbamic acid tert-butyl ester], the “Cell viability (% of control)” value in the data set on Vero cells is 55.2%. The compound also returned an EC90 in the data set with HSV-1 of 5.4 µM. In addition, the IC50 at HSV-1 protease was determined as 2.3 µM.

In the case of `Cc1c(NC(=O)c2ccc(Br)cc2)ccc2nc(NC(C)(C)C(=O)N(C)CCc3ccccn3)oc(=O)c12` [Compound No.154, 4-Bromo-N-(5-methyl-2-{1-methyl-1-[methyl-(2-pyridin-2-yl-ethyl)-carbamoyl]-ethylamino}-4-oxo-4H-benzo[d][1,3]oxazin-6-yl)-benzamide], the “Cell viability (% of control)” value with Vero cells is 28.3%. In the data set with HSV-1, this compound had an EC90 of 5.4 µM. Also, the IC50 on HSV-1 protease was determined as 2.4 µM.

As for `Cc1c(NC(=O)C=Cc2ccccc2)ccc2nc(NC(C)(C)C(=O)N(C)CCc3ccccn3)oc(=O)c12` [Compound No.159, N-(5-Methyl-2-{1-methyl-1-[methyl-(2-pyridin-2-yl-ethyl)-carbamoyl]-ethylamino}-4-oxo-4H-benzo[d][1,3]oxazin-6-yl)-3-phenyl-acrylamide], the “Cell viability (% of control)” value in the data set on Vero cells is reported as 15.9%. Also, in the data set with HSV-1, the 90% effect level (EC90) was put at 10.8 µM. Further, the half-maximal inhibitory concentration (IC50) on HSV-1 protease was found to be 1.4 µM.

`Cc1c(NC(=O)c2ccccc2COC(=O)c2ccccc2)ccc2nc(NC(C)(C)C(=O)N(C)CCc3ccccn3)oc(=O)c12` [Compound No.186, Benzoic acid 2-(5-methyl-2-{1-methyl-1-[methyl-(2-pyridin-2-yl-ethyl)-carbamoyl]-ethylamino}-4-oxo-4H-benzo[d][1,3]oxazin-6-ylcarbamoyl)-benzyl ester]: the “Cell viability (% of control)” value in the data set on Vero cells stood at 18.1%. This compound also had an EC90 with HSV-1 of 3.5 µM. Also, the IC50 on HSV-1 protease is 1 µM.

As to `Cc1ccc(C(=O)Nc2ccc3nc(NC(C)(C)C(=O)N(C)CCc4ccccn4)oc(=O)c3c2C)cc1` [Compound No.158, 4-Methyl-N-(5-methyl-2-{1-methyl-1-[methyl-(2-pyridin-2-yl-ethyl)-carbamoyl]-ethylamino}-4-oxo-4H-benzo[d][1,3]oxazin-6-yl)-benzamide], the “Cell viability (% of control)” value in the data set on Vero cells worked out at 63.6%. Besides, the EC90 in the data set on HSV-1 turned out to be 8.3 µM. For the same compound, the IC50 on HSV-1 protease amounted to 3.3 µM.

With `Cc1c(NC(=O)c2cccc(Cl)c2)ccc2nc(NC(C)(C)C(=O)N(C)CCc3ccccn3)oc(=O)c12` [Compound No.152, 3-Chloro-N-(5-methyl-2-{1-methyl-1-[methyl-(2-pyridin-2-yl-ethyl)-carbamoyl]-ethylamino}-4-oxo-4H-benzo[d][1,3]oxazin-6-yl)-benzamide], in the data set on Vero cells, the “Cell viability (% of control)” value was 30.9%. In the data set on HSV-1, this compound displayed an EC90 of 6.3 µM. For the same compound, on HSV-1 protease, the IC50 is 1.8 µM.

Regarding `Cc1c(NC(=O)OC(C)(C)C)ccc2nc(N3CCC[C@H]3C(=O)NCc3cccnc3)oc(=O)c12` [Compound No.87, (5-Methyl-4-oxo-2-{2S-[(pyridin-3-ylmethyl)-carbamoyl]-pyrrolidin-1-yl}-4H-benzo[d][1,3]oxazin-6-yl)-carbamic acid tert-butyl ester], the “Cell viability (% of control)” value in the data set with Vero cells was found to be 92.4%. In addition, the EC90 in the data set on HSV-1 is over 12.5 µM. Moreover, on HSV-1 protease, the half-maximal inhibitory concentration (IC50) was determined as 1.7 µM.

Take `Cc1ccccc1C(=O)Nc1ccc2nc(NC(C)(C)C(=O)N(C)CCc3ccccn3)oc(=O)c2c1C` [Compound No.156, 2-Methyl-N-(5-methyl-2-{1-methyl-1-[methyl-(2-pyridin-2-yl-ethyl)-carbamoyl]-ethylamino}-4-oxo-4H-benzo[d][1,3]oxazin-6-yl)-benzamide]: the “Cell viability (% of control)” value in the data set with Vero cells was 78.0%. This compound also gave an EC90 with HSV-1 of over 12.5 µM. Further, the IC50 at HSV-1 protease stood at 3.8 µM.

For the compound `Cc1c(NC(=O)OC(C)(C)C)ccc2nc(N3C[C@H](OCc4ccccc4)C[C@H]3C(=O)N(C)CCc3ccncc3)oc(=O)c12` [Compound No.116, (2-{4R-Benzyloxy-2S-[methyl-(2-pyridin-4-yl-ethyl)-carbamoyl]-pyrrolidin-1-yl}-5-methyl-4-oxo-4H-benzo[d][1,3]oxazin-6-yl)-carbamic acid tert-butyl ester], in the data set on Vero cells, the “Cell viability (% of control)” value turned out to be 68.2%. The same compound yielded an EC90 with HSV-1 of 6.5 µM. For the same compound, at HSV-1 protease, the IC50 is over 10 µM.

On to `Cc1c(NC(=O)c2ccccc2Br)ccc2nc(NC(C)(C)C(=O)N(C)CCc3ccccn3)oc(=O)c12` [compound 199, 2-Bromo-N-(5-methyl-2-{1-methyl-1-[methyl-(2-pyridin-2-yl-ethyl)-carbamoyl]-ethylamino}-4-oxo-4H-benzo[d][1,3]oxazin-6-yl)-benzamide], for which the “Cell viability (% of control)” value in the data set on Vero cells was 56.9%. In the data set on HSV-1, this compound displayed an EC90 of 4.1 µM. The IC50 at HSV-1 protease is 3 µM.

Consider `Cc1c(NC(=O)OC(C)(C)C)ccc2nc(N(C)[C@@H](C)C(=O)NCc3cccnc3)oc(=O)c12` [Compound No.72, [5-Methyl-2-(methyl-{1S-[(pyridin-3-ylmethyl)-carbamoyl]-ethyl}-amino)-4-oxo-4H-benzo[d][1,3]oxazin-6-yl]-carbamic acid tert-butyl ester], for which the “Cell viability (% of control)” value in the data set on Vero cells amounted to 90.7%. The EC90 in the data set on HSV-1 was over 12.5 µM. The IC50 on HSV-1 protease came out at 1.1 µM.

With `Cc1cc(C(=O)Nc2ccc3nc(NC(C)(C)C(=O)N(C)CCc4ccccn4)oc(=O)c3c2C)c(C(F)(F)F)o1` [Compound No.175, 5-Methyl-2-trifluoromethyl-furan-3-carboxylic acid (5-methyl-2-{1-methyl-1-[methyl-(2-pyridin-2-yl-ethyl)-carbamoyl]-ethylamino}-4-oxo-4H-benzo [d][1,3]oxazin-6-yl)-amide], the “Cell viability (% of control)” value in the data set on Vero cells was 99.4%. Further, in the data set on HSV-1, the EC90 is over 12.5 µM. For the same compound, at HSV-1 protease, the IC50 is 2.5 µM.

For the compound `Cc1c(NC(=O)c2ccccc2Cl)ccc2nc(NC(C)(C)C(=O)N(C)CCc3ccccn3)oc(=O)c12` [compound 151, 2-Chloro-N-(5-methyl-2-{1-methyl-1-[methyl-(2-pyridin-2-yl-ethyl)-carbamoyl]-ethylamino}-4-oxo-4H-benzo[d][1,3]oxazin-6-yl)-benzamide], in the data set with Vero cells, the “Cell viability (% of control)” value is recorded as 74.2%. The compound also yielded an EC90 in the data set on HSV-1 of 7.6 µM. Moreover, at HSV-1 protease, the IC50 turned out to be 1.4 µM.

As for `Cc1c(NC(=O)OC(C)(C)C)ccc2nc(N(C)[C@@H](Cc3ccccc3)C(=O)N(C)CCc3cccnc3)oc(=O)c12` [Compound No.84, [5-Methyl-2-(methyl-{1S-[methyl-(2-pyridin-3-yl-ethyl)-carbamoyl]-2-phenyl-ethyl}-amino)-4-oxo-4H-benzo[d][1,3]oxazin-6-yl]-carbamic acid tert-butyl ester], the “Cell viability (% of control)” value in the data set with Vero cells is 37.6%. In the data set with HSV-1, this compound registered an EC90 of 11 µM. Besides, the IC50 at HSV-1 protease was determined as 1.7 µM.

As for `Cc1c(NC(=O)OC(C)(C)C)ccc2nc(N[C@@H](CC3CCCCC3)C(=O)N(C)CCc3ccccn3)oc(=O)c12` [Compound No.47, (2-{2-cyclohexyl-1S-[methyl-(2-pyridin-2-yl-ethyl)-carbamoyl]-ethylamino}-5-methyl-4-oxo-4H-benzo[d][1,3]oxazin-6-yl)-carbamic acid tert-butyl ester], the “Cell viability (% of control)” value in the data set with Vero cells is on record as 36.7%. In the data set with HSV-1, this compound returned an EC90 of under 3.2 µM. Further, the IC50 at HSV-1 protease came to 2.9 µM.
